Measurements as given in ChEMBL document CHEMBL5715954, “Silencing c-Myc translation as a therapeutic strategy through targeting PI3Kδ and CK1ε in hematological malignancies” (Blood, 2017).

Columns and labels:
Parameters in all cases: scale not given: the % may be the effect or the level left
[1] = target: Vascular endothelial growth factor receptor 3 (Homo sapiens) (UniProt P35916); experiment: Inhibition of human FLT4 assessed as enzyme activity at 1 uM using poly[Glu:Tyr] (4:1) as substrate preincubated for 20 mins followed by [gamma-33P]-ATP addition and measured after 120 mins by radiometric Hot-SpotSM Kinase assay relative to control
[2] = target: T1, Beta-adrenergic receptor kinase 1 (Homo sapiens) (UniProt P25098); experiment: Inhibition of human GRK2 assessed as enzyme activity at 1 uM using casein as substrate preincubated for 20 mins followed by [gamma-33P]-ATP addition and measured after 120 mins by radiometric Hot-SpotSM Kinase assay relative to control
T1 sequence (whole entry): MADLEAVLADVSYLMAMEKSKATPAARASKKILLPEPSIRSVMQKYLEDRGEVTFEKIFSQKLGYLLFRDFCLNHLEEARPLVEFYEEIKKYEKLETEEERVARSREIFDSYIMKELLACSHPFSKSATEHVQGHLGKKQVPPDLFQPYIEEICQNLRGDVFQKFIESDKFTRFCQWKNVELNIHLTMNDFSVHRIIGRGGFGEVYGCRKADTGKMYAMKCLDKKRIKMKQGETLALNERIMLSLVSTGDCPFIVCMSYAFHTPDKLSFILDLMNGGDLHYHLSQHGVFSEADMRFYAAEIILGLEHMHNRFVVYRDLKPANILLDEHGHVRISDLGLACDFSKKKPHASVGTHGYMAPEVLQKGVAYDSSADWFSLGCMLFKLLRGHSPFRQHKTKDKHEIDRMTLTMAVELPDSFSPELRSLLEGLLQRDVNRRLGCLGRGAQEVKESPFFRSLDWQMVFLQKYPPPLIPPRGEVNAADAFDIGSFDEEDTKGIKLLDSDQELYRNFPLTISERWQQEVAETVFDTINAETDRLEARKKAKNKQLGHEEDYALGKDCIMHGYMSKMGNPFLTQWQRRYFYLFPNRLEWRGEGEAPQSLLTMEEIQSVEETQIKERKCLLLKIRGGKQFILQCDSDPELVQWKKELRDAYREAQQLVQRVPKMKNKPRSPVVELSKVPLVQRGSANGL

[3] = target: CDK7/Cyclin H/MNAT1 (Homo sapiens) (UniProt P51946+P50613+P51948); experiment: Inhibition of human CDK7/Cyclin H/MNAT1 assessed as enzyme activity at 1 uM using myelin basic protein as substrate preincubated for 20 mins followed by [gamma-33P]-ATP addition and measured after 120 mins by radiometric Hot-SpotSM Kinase assay relative to control; type: protein-complex assay
[4] = target: T2, MAP/microtubule affinity-regulating kinase 4 (Homo sapiens) (UniProt Q96L34); experiment: Inhibition of human MARK4 assessed as enzyme activity at 1 uM using KKKVSRSGLYRSPSMPENLNRPR as substrate preincubated for 20 mins followed by [gamma-33P]-ATP addition and measured after 120 mins by radiometric Hot-SpotSM Kinase assay relative to control
T2 sequence (whole entry): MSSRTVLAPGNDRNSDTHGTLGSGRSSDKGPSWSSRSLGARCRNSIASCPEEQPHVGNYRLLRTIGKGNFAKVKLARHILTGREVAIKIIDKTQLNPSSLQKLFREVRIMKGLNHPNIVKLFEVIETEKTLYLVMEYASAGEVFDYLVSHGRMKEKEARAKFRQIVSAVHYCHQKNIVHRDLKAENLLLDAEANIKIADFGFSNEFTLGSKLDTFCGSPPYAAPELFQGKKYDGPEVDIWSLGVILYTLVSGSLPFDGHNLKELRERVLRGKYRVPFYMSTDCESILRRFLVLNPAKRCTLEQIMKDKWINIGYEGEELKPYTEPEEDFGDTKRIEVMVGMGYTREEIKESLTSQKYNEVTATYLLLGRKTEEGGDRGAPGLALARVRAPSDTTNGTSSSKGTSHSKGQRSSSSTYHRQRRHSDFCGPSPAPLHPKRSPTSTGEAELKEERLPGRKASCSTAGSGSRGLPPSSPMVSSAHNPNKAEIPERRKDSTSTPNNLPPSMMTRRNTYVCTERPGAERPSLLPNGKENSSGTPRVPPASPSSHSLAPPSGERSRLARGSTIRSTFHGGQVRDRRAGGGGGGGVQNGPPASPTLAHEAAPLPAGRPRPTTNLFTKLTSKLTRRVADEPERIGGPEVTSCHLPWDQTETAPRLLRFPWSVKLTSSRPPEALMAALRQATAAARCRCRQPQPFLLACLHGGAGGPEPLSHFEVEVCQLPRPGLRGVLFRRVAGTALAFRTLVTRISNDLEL

[5] = target: T3, Tyrosine-protein kinase ZAP-70 (Homo sapiens) (UniProt P43403); experiment: Inhibition of human ZAP70 assessed as enzyme activity at 1 uM using poly[Glu:Tyr] (4:1) as substrate preincubated for 20 mins followed by [gamma-33P]-ATP addition and measured after 120 mins by radiometric Hot-SpotSM Kinase assay relative to control
T3 sequence (whole entry): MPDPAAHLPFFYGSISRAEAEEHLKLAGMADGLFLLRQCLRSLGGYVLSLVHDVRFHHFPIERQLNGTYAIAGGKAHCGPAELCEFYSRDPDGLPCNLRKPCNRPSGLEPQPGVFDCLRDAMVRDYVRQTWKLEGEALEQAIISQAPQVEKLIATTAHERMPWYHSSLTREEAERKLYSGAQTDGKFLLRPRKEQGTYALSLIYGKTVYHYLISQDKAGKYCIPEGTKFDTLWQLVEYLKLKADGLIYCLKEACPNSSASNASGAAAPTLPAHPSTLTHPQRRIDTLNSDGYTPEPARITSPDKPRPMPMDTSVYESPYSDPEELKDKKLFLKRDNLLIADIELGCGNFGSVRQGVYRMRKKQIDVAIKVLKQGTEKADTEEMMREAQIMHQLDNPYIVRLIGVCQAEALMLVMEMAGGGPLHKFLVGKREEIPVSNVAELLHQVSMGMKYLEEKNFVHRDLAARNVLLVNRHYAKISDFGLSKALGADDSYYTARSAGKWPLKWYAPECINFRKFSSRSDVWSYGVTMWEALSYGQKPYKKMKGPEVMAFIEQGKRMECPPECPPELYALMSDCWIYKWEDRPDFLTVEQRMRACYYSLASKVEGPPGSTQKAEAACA

[6] = target: Serine/threonine-protein kinase PAK 1 (Homo sapiens) (UniProt Q13153); experiment: Inhibition of human PAK1 assessed as enzyme activity at 1 uM using RRRLSFAEPG as substrate preincubated for 20 mins followed by [gamma-33P]-ATP addition and measured after 120 mins by radiometric Hot-SpotSM Kinase assay relative to control
[7] = target: Fibroblast growth factor receptor 4 (Homo sapiens) (UniProt P22455); experiment: Inhibition of human FGFR4 assessed as enzyme activity at 1 uM using poly[Glu:Tyr] (4:1) as substrate preincubated for 20 mins followed by [gamma-33P]-ATP addition and measured after 120 mins by radiometric Hot-SpotSM Kinase assay relative to control
Fibroblast growth factor receptor 4 (Homo sapiens), sequence (P22455 22-802 limits assumed): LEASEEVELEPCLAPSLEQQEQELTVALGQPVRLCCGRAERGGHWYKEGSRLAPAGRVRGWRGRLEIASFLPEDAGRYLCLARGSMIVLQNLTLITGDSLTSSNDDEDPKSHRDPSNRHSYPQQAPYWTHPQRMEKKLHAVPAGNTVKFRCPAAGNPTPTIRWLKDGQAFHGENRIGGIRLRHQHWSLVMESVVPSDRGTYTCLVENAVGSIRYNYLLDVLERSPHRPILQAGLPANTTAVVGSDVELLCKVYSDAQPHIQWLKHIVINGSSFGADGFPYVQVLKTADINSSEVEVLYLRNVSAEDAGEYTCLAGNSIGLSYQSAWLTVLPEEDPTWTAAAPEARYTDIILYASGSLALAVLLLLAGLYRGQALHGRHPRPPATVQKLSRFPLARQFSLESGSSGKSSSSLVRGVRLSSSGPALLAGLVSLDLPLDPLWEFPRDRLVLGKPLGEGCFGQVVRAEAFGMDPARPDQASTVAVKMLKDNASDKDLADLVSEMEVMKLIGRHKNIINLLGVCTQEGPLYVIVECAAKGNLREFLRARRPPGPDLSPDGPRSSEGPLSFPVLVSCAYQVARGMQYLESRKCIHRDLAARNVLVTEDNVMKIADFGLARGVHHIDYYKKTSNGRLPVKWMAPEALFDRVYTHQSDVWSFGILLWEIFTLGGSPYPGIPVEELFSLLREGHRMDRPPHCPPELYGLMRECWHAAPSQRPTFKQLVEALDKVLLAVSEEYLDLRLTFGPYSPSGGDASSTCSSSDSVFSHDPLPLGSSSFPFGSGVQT

Serine/threonine-protein kinase PAK 1 (Homo sapiens), sequence (Q13153 whole entry): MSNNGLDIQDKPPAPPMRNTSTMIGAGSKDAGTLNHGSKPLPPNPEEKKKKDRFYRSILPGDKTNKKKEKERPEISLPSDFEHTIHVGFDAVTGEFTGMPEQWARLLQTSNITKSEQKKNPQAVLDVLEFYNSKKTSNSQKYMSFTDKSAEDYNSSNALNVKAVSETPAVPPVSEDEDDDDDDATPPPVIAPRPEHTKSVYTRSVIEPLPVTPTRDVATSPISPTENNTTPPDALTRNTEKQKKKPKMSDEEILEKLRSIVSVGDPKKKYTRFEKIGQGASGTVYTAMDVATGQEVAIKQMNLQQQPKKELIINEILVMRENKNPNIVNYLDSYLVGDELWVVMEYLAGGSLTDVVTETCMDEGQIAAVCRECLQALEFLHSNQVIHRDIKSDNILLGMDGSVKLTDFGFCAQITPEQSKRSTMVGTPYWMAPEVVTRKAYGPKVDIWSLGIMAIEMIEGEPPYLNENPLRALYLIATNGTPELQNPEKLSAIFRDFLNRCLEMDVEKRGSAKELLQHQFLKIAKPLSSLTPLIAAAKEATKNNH
Vascular endothelial growth factor receptor 3 (Homo sapiens), sequence (P35916 whole entry): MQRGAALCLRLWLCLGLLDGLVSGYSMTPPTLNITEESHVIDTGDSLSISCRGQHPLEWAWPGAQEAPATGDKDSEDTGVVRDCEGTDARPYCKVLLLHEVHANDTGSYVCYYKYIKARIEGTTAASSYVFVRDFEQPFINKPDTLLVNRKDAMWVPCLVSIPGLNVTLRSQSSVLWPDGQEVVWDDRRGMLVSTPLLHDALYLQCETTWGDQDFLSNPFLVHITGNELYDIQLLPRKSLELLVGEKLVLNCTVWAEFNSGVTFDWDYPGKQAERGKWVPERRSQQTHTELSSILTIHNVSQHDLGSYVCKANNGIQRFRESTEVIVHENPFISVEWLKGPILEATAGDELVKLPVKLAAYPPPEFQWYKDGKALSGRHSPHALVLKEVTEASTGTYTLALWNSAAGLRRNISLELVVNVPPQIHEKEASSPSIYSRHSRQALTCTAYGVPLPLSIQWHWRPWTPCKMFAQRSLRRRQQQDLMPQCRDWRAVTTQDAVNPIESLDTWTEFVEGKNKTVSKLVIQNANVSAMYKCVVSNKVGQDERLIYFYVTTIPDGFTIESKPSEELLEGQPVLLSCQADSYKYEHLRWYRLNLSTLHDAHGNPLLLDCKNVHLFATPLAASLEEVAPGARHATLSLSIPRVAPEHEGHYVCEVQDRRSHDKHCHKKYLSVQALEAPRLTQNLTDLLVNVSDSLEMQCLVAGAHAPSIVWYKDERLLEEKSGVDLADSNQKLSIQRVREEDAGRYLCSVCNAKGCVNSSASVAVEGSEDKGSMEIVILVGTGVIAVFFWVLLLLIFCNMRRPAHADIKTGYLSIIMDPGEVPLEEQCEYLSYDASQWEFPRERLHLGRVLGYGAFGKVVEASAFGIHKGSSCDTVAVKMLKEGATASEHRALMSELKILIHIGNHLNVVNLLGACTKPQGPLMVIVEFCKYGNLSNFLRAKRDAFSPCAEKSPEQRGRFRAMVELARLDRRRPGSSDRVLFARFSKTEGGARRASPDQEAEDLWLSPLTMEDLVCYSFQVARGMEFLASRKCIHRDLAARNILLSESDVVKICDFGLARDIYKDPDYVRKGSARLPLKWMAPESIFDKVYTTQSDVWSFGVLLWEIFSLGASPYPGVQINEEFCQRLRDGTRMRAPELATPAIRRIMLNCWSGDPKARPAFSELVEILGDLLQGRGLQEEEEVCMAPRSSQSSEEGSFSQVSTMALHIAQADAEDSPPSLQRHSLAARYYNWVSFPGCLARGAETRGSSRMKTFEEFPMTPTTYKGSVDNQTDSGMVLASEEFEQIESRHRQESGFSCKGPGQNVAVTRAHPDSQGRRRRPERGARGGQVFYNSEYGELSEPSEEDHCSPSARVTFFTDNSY

Structure (SMILES)	Activity [1]	Activity [2]	Activity [3]	Activity [4]	Activity [5]	Activity [6]	Activity [7]
CC[C@H](Nc1ncnc2[nH]cnc12)c1nc2cccc(F)c2c(=O)n1-c1ccccc1	98.8%	93.9%	98.1%	97%	100%	98.7%	97.3%
C[C@H](Nc1ncnc2nc[nH]c12)c1cc2cccc(Cl)c2c(=O)n1-c1ccccc1	101%	94.2%	95.2%	109%	99.7%	97.5%	94.5%
CC(C)Oc1ccc(-c2nn([C@@H](C)c3oc4ccc(F)cc4c(=O)c3-c3cccc(F)c3)c3ncnc(N)c23)cc1F [UMBRALISIB]	98.8%	94.5%	101%	112%	99.4%	98.2%	93.2%
